# Laboratory results: PMC5218480 (PLoS ONE, 2017)
# Test system: MV-4-11 cells
# Experiment: Gene expression microarray analysis (Affymetrix PrimeView) and GSEA
# Type: cell-based, human
# Settings: MV-4-11, 48 hours, 1 μM each
compound,measurement,value
Nc1ncn([C@@H]2O[C@H](CO)[C@@H](O)[C@H]2O)c(=O)n1 [azacitidine],genes down-regulated greater than 2-fold relative to vehicle control,12 genes
